This is an account of results in patent US7871793B2, “Antimicrobial carbohydrates and methods of using same” (Burnham Institute for Medical Research, priority 2004, dated 2011).

Test [1] relates to H. pylori infection. The conditions noted are these: patients; cited from earlier work.
The subject of test [2] is H. pylori (ATCC43504). As to the kind of experiment: Cultivation of H. pylori in the presence or absence of cholesterol. Format: cell-based, Helicobacter pylori. The note with it: Ham's F-12 with 0.005% cholesterol, 5 days.
Test [3] has as its system H. pylori. As to the kind of experiment: Cell motility assay (time-lapse confocal images). The note with it: 31.2 mU/ml or same protein concentration, 3 days, mean±SD. Format: cell-based, Helicobacter pylori.
In test [4] the test system is UDP-Glc:sterol glucosyltransferase. Nature of the test: In vitro synthesis of CGL from UDP-Glc and cholesterol by sonicated H. pylori. Type of test: biochemical, Helicobacter pylori. The note with it: 5.0 mU in 100 μl reaction (50.0 mU/ml), 30° C., 3 hours.
Test [5] has as its system Helicobacter pylori (ATCC43504). As to the kind of experiment: Cell growth assay of H. pylori (microbroth dilution, OD 600 nm). Type of test: cell-based. The note with it: ATCC43504, Brucella broth, 96-well plate, 35° C., 15% CO2, 4 days, OD600. In general terms: In broth dilution the organism is exposed to a series of concentrations in liquid medium.

As for `CC[C@H]1OC(=O)[C@H](C)[C@@H](O[C@H]2C[C@@](C)(OC)[C@@H](O)[C@H](C)O2)[C@H](C)[C@@H](O[C@@H]2O[C@H](C)C[C@H](N(C)C)[C@H]2O)[C@](C)(OC)C[C@@H](C)C(=O)[C@H](C)[C@@H](O)[C@]1(C)O` [clarithromycin], in test [1], the eradication rate result was “about 40%”.

As for `CC(C)CCC[C@@H](C)[C@H]1CC[C@H]2[C@@H]3CC=C4C[C@@H](O)CC[C@]4(C)[C@H]3CC[C@]12C` [cholesterol], in test [2], the morphology result was “normal” and the motility entry is listed as “good”. Besides, the CFU/ml in test [2] (35° C.) is 1 × 10^8 CFU/ml.

As for `CC1(C)S[C@@H]2[C@H](NC(=O)[C@H](N)c3ccc(O)cc3)C(=O)N2[C@H]1C(=O)O` [amoxicillin], the eradication rate entry in test [1] is “less than 20%”.

Turning to `Cc1ncc([N+](=O)[O-])n1CCO` [metronidazole], in test [1], the eradication rate entry is recorded as “less than 10%”.

B1: CD43 free of a GlcNAcα residue: control soluble CD43 produced without α4GnT cDNA; side chain Galβ1→4GlcNAcβ1→6(Galβ1→3)GalNAcα→Ser/Thr (protein, UniProt P16150 20-253, looked up)
extracellular domain: STTAVQTPTSGEPLVSTSEPLSSKMYTTSITSDPKADSTGDQTSALPPSTSINEGSPLWTSIGASTGSPLPEPTTYQEVSIKMSSVPQETPHATSHPAVPITANSLGSHTVTGGTITTNSPETSSRTSGAPVTTAASSLETSRGTSGPPLTMATVSLETSKGTSGPPVTMATDSLETSTGTTGPPVTMTTGSLEPSSGASGPQVSSVKLSTMMSPTTSTNASTVPFRNPDENSR
modifications: extracellular domain core2 O-glycans lacking terminal GlcNAc
notes: control soluble CD43 produced without α4GnT cDNA; side chain Galβ1→4GlcNAcβ1→6(Galβ1→3)GalNAcα→Ser/Thr
As to B1, the “mean velocity of seven H. pylori” value is recorded as 21.1±2.6 μm/sec in test [3] and 21.2±2.6 μm/sec in test [3] (listed as αGlcNAc (−)). Also, the “peak of CGL at m/z 571.6 in products of sonicated H. pylori” value in test [4] is listed as “a peak of CGL was detected”. In addition, the “growth of H. pylori” value in test [5] is reported as “drastic growth”.
